BindingDB's records for doi:10.1016/j.bmcl.2009.07.043 (Wyeth Research, 2009)

Assay: Inhibition of human Src expressed in rat fibroblasts assessed as anchorage independent growth after 3 days

With COc1cc(Nc2c(C#N)cnc3cc(-c4ncccc4CN4CCOCC4)ccc23)c(Cl)cc1Cl [4-(2,4-dichloro-5-methoxyphenylamino)-7-(3-(morpholinomethyl)pyridin-2-yl)quinoline-3-carbonitrile] the IC50 was > 10 µM.
